Where two headings read alike, the source gives them in different places.

One series deals with Pseudomonas aeruginosa. Kind of series: Zones of inhibition of treated catheter segments on seeded trypticase soy agar plates, 24 hours.
Series [1] deals with S. epidermidis. It counts as cell-based, Staphylococcus epidermidis.
The test system of series [2] is S. epidermidis. Kind of series: Minimum inhibitory concentration in Trypticase Soy Broth, synergy (fractional inhibitory concentration). It counts as cell-based, Staphylococcus epidermidis.
The conditions of series [3]: tetrahydrofuran/methanol solvent systems.
The mark [4] stands for this setting: catheter treated with 2% bismuth salt.
The mark [5] stands for this setting: catheter treated with 2% bismuth salt + 3% minocycline.
The mark [6] stands for this setting: 10-20 passages, inoculum 10^4 cfu/ml.
Setting [7] is: 10 transfers, inoculum 10^6 cfu/ml.

Turning to `O=[N+]([O-])[O-].O=[N+]([O-])[O-].O=[N+]([O-])[O-].[Bi+3]` [Bismuth Nitrate, bismuth nitrate], the “Zones of Inhibition Against Pseudomonas aeruginosa (mm) 2% Bismuth Salt” value in the series with Pseudomonas aeruginosa (setting [4]) was 0 mm. In the series with Pseudomonas aeruginosa (setting [5]), the “Zones of Inhibition Against Pseudomonas aeruginosa (mm) 2% Bismuth Salt + 3% Minocycline” value is 15 mm.

On to `CC(=O)[O-].CC(=O)[O-].CC(=O)[O-].[Bi+3]` [Bismuth acetate, bismuth acetate], for which, in the series on Pseudomonas aeruginosa, the “Zones of Inhibition Against Pseudomonas aeruginosa (mm) 2% Bismuth Salt” value was determined as 0 mm and the “Zones of Inhibition Against Pseudomonas aeruginosa (mm) 2% Bismuth Salt + 3% Minocycline” value came out at 17 mm.

`O=C([O-])c1ccccc1.O=C([O-])c1ccccc1.O=C([O-])c1ccccc1.[Bi+3]` [Bismuth benzoate, bismuth benzoate]: in the series on Pseudomonas aeruginosa, the “Zones of Inhibition Against Pseudomonas aeruginosa (mm) 2% Bismuth Salt” value worked out at 0 mm and the “Zones of Inhibition Against Pseudomonas aeruginosa (mm) 2% Bismuth Salt + 3% Minocycline” value is 18 mm.

Regarding `[Bi+3].[O-]B([O-])[O-]` [Bismuth borate, bismuth borate], in the series on Pseudomonas aeruginosa, the “Zones of Inhibition Against Pseudomonas aeruginosa (mm) 2% Bismuth Salt” value came out at 0 mm and the “Zones of Inhibition Against Pseudomonas aeruginosa (mm) 2% Bismuth Salt + 3% Minocycline” value worked out at 13 mm.

Turning to `O=C([O-])CC(O)(CC(=O)[O-])C(=O)[O-].[Bi+3]` [Bismuth citrate, bismuth citrate], in the series on Pseudomonas aeruginosa, the “Zones of Inhibition Against Pseudomonas aeruginosa (mm) 2% Bismuth Salt” value is reported as 0 mm and the “Zones of Inhibition Against Pseudomonas aeruginosa (mm) 2% Bismuth Salt + 3% Minocycline” value amounted to 17 mm.

What is called MIC is the lowest concentration that inhibits growth of the organism. Consider `CC(=O)O.CC(=O)O.NC(=N\CCCCCC/N=C(N)/N=C(\N)Nc1ccc(Cl)cc1)/N=C(\N)Nc1ccc(Cl)cc1` [Chlorhexidine (CHX), chlorhexidine diacetate], for which, in the series on S. epidermidis [1], the “INCREASE IN MIC (fold)” value is on record as 2 fold, the “MIC (μg/ml) AFTER PASSAGE” value turned out to be 1.0 µg/mL and the “MIC (μg/ml) BEFORE PASSAGE” value stood at 0.5 µg/mL. The minimal inhibitory concentration (MIC) in the series with S. epidermidis [2] (inoculum of 10^4 cfu/ml) came out at 0.5 µg/mL.

Take `CN(C)c1ccc(O)c2c1C[C@H]1C[C@H]3[C@H](N(C)C)C(O)=C(C(N)=O)C(=O)[C@@]3(O)C(O)=C1C2=O` [Minocycline (M), minocycline]: the “INCREASE IN MIC (fold)” value with S. epidermidis [1] (setting [6]) turned out to be 2 fold; with S. epidermidis [1] (setting [7]), 4 fold.

Take `CCn1cc(C(=O)O)c(=O)c2cc(F)c(N3CCNCC3)cc21` [Norfloxacin (Nf), norfloxacin]: in series [3], the “upper limit incorporated (low solubility in tetrahydrofuran/methanol)” value is recorded as “about 0.5 percent (w/v)”. In addition, the “INCREASE IN MIC (fold)” value in the series with S. epidermidis [1] (setting [6]) was 40 fold.

Turning to `CO[C@H]1/C=C/O[C@@]2(C)Oc3c(C)c(O)c4c(O)c(c(/C=N/N5CCN(C)CC5)c(O)c4c3C2=O)NC(=O)/C(C)=C\C=C\[C@H](C)[C@H](O)[C@@H](C)[C@@H](O)[C@@H](C)[C@H](OC(C)=O)[C@@H]1C` [Rifampin (R), rifampin], the “INCREASE IN MIC (fold)” value in the series on S. epidermidis [1] (setting [6]) was 25,000 fold.

For `NC[C@H]1O[C@H](O[C@H]2[C@H](O)[C@@H](O[C@H]3O[C@H](CO)[C@@H](O)[C@H](N)[C@H]3O)[C@H](N)C[C@@H]2N)[C@H](N)C[C@@H]1O` [Tobramycin (Tb), tobramycin], the “INCREASE IN MIC (fold)” value with S. epidermidis [1] (setting [6]) is 20 fold.

Regarding `Oc1cc(Cl)ccc1Oc1ccc(Cl)cc1Cl` [Triclosan (T), triclosan], the “INCREASE IN MIC (fold)” value in the series on S. epidermidis [1] (setting [6]) and with S. epidermidis [1] (setting [7]) was 7 fold each time. Further, the minimum inhibitory concentration (MIC) with S. epidermidis [2] (Staphylococcus epidermidis, 24 h) came to 0.35 µg/mL.

Regarding bismuth mandelate, in the series on Pseudomonas aeruginosa, the “Zones of Inhibition Against Pseudomonas aeruginosa (mm) 2% Bismuth Salt” value was 0 mm and the “Zones of Inhibition Against Pseudomonas aeruginosa (mm) 2% Bismuth Salt + 3% Minocycline” value was 18.5 mm.

bismuth palmitate: in the series on Pseudomonas aeruginosa, the “Zones of Inhibition Against Pseudomonas aeruginosa (mm) 2% Bismuth Salt” value is on record as 0 mm and the “Zones of Inhibition Against Pseudomonas aeruginosa (mm) 2% Bismuth Salt + 3% Minocycline” value was 18.5 mm.

As for bismuth salicylate, in the series with Pseudomonas aeruginosa, the “Zones of Inhibition Against Pseudomonas aeruginosa (mm) 2% Bismuth Salt” value stood at 0 mm and the “Zones of Inhibition Against Pseudomonas aeruginosa (mm) 2% Bismuth Salt + 3% Minocycline” value worked out at 17 mm.

With bismuth sulfadiazine, the “Zones of Inhibition Against Pseudomonas aeruginosa (mm) 2% Bismuth Salt” value with Pseudomonas aeruginosa (setting [4]) is listed as 6.5 mm. For the same compound, in the series on Pseudomonas aeruginosa (setting [5]), the “Zones of Inhibition Against Pseudomonas aeruginosa (mm) 2% Bismuth Salt + 3% Minocycline” value worked out at 15.5 mm.

For the compound polyhexamethylenebiguanide [PHMB], in the series with S. epidermidis [1], the “INCREASE IN MIC (fold)” value was determined as 1.0 fold, the “MIC (μg/ml) AFTER PASSAGE” value amounted to 0.31 µg/mL and the “MIC (μg/ml) BEFORE PASSAGE” value stood at 0.31 µg/mL.
